Results taken from patent US5213974A, “Fermentation process for preparing antibiotics mureidomycins A, B, C and D” (priority 1986, dated 1993).
In brackets after ≈: the same amount, converted by molar mass.

Assays:
[1] = test system: Pseudomonas aeruginosa NCTC 10490; assay: MIC, two-fold agar dilution method, Mueller-Hinton agar; format: cell-based
Procedure: (§1) The minimal inhibitory concentrations (MIC) of mureidomycins A, B, C and D against various gram-positive and gram-negative bacteria were determined by the two-fold agar dilution method, using a Mueller-Hinton agar medium (produced by Difco).

[2] = test system: Proteus mirabilis SANK 70461; assay: as above; format: cell-based
Procedure: as §1

[3] = test system: Pseudomonas aeruginosa SANK 75775; assay: as above; format: cell-based
Procedure: as §1

[4] = test system: Pseudomonas aeruginosa SANK 70479; assay: as above; format: cell-based
Procedure: as §1

[5] = test system: Pseudomonas aeruginosa SANK 70579; assay: as above; format: cell-based
Procedure: as §1

[6] = test system: Pseudomonas aeruginosa NRRLB 1000; assay: as above; format: cell-based
Procedure: as §1

[7] = test system: Pseudomonas aeruginosa SANK 73279; assay: as above; format: cell-based
Procedure: as §1

[8] = test system: Pseudomonas aeruginosa SANK 75175; assay: as above; format: cell-based
Procedure: as §1

[9] = test system: Pseudomonas aeruginosa SANK 73375; assay: as above; format: cell-based
Procedure: as §1

[10] = test system: Klebsiella pneumoniae PCI 602; assay: as above; format: cell-based
Procedure: as §1

[11] = test system: Serratia marcescens SANK 73060; assay: as above; format: cell-based
Procedure: as §1

[12] = test system: Pseudomonas aeruginosa SANK 73379; assay: as above; format: cell-based
Procedure: as §1

[13] = test system: Pseudomonas acidovorans SANK 72782; assay: as above; format: cell-based
Procedure: as §1

[14] = test system: Esherichia coli NIHJ JC-2; assay: as above; format: cell-based
Procedure: as §1

[15] = test system: Pseudomonas aeruginosa SANK 71873; assay: as above; format: cell-based
Procedure: as §1

[16] = test system: Pseudomonas aeruginosa ATCC 13388; assay: as above; format: cell-based
Procedure: as §1

[17] = test system: Staphylococcus aureus FDA 209P JC-1; assay: as above; format: cell-based
Procedure: as §1

[18] = test system: Pseudomonas aeruginosa SANK 70970; assay: as above; format: cell-based
Procedure: as §1

[19] = test system: gram-negative bacteria, particularly bacteria of the genus Pseudomonas; assay: Antibacterial activity, summary of the MIC data; format: cell-based
Procedure: as §1
From the above data, mureidomycins A, B, C and D are active against gram-negative bacteria, particularly against bacteria of the genus Pseudomonas.

mice = assay: Toxicity in mice, intravenous; format: in vivo
[20] = Solubility in water and organic solvents; format: physicochemical

Compound | MIC [1] [µg/mL] | MIC [2] [µg/mL] | MIC [3] [µg/mL] | MIC [4] [µg/mL] | MIC [5] [µg/mL] | MIC [6] [µg/mL] | MIC [7] [µg/mL] | MIC [8] [µg/mL] | MIC [9] [µg/mL] | MIC [10] [µg/mL] | MIC [11] [µg/mL] | MIC [12] [µg/mL] | MIC [13] [µg/mL] | MIC [14] [µg/mL] | MIC [15] [µg/mL] | MIC [16] [µg/mL] | MIC [17] [µg/mL] | MIC [18] [µg/mL] | activity against gram-negative bacteria [19] | Solubility ([20]; acetone) | other results
CSCC[C@H](NC(=O)NC(Cc1cccc(O)c1)C(=O)O)C(=O)N[C@@H](C(=O)N/C=C1\CC(O)C(N2CCC(=O)NC2=O)O1)C(C)N(C)C(=O)[C@@H](N)Cc1cccc(O)c1 (some centres unmarked) [Mureidomycin B, mureidomycin B] | 0.8 (≈ 0.949 µM) | > 200 | 200 (≈ 237 µM) | 12.5 (≈ 14.8 µM) | 0.2 (≈ 0.237 µM) | 50 (≈ 59.3 µM) | 25 (≈ 29.7 µM) | 50 (≈ 59.3 µM) | 25 (≈ 29.7 µM) | 25 (≈ 29.7 µM) | > 200 | 200 (≈ 237 µM) | 200 (≈ 237 µM) | > 200 | 25 (≈ 29.7 µM) | 50 (≈ 59.3 µM) | > 200 | 25 (≈ 29.7 µM) | active | slightly soluble | toxicity (mice; mice, 400 mg/kg intravenously): No toxicity was observed; Solubility ([20]; benzene): insoluble; Solubility ([20]; chloroform): insoluble; Solubility ([20]; ethyl acetate): insoluble; Solubility ([20]; methanol): Soluble; Solubility ([20]; water): Soluble
mureidomycin D | 1.56 | > 200 | 6.25 | 6.25 | 0.2 | 6.25 | 6.25 | 12.5 | 6.25 | 25 | > 200 | 50 | 100 | > 200 | 6.25 | 6.25 | > 200 | 3.13 | active | slightly soluble | toxicity (mice; mouse, in vivo, iv, 400 mg/kg): No toxicity was observed; Solubility ([20]; benzene): insoluble; Solubility ([20]; chloroform): insoluble; Solubility ([20]; ethyl acetate): insoluble; Solubility ([20]; methanol): Soluble; Solubility ([20]; water): Soluble
CSCC[C@H](NC(=O)NC(Cc1cccc(O)c1)C(=O)O)C(=O)N[C@@H](C(=O)NC=C1CC(O)C(n2ccc(=O)[nH]c2=O)O1)C(C)N(C)C(=O)[C@H](Cc1cccc(O)c1)NC(=O)CN (some centres unmarked) [Mureidomycin C, mureidomycin C] | 0.4 (≈ 0.445 µM) | > 200 | 1.56 (≈ 1.74 µM) | 1.56 (≈ 1.74 µM) | < 0.1 | 3.13 (≈ 3.49 µM) | 1.56 (≈ 1.74 µM) | 3.13 (≈ 3.49 µM) | 3.13 (≈ 3.49 µM) | 12.5 (≈ 13.9 µM) | > 200 | 6.25 (≈ 6.96 µM) | > 200 | > 200 | 1.56 (≈ 1.74 µM) | 3.13 (≈ 3.49 µM) | > 200 | 1.56 (≈ 1.74 µM) | active | slightly soluble | toxicity (mice; mice, 400 mg/kg intravenously): No toxicity was observed; Solubility ([20]; benzene): insoluble; Solubility ([20]; chloroform): insoluble; Solubility ([20]; ethyl acetate): insoluble; Solubility ([20]; methanol): Soluble; Solubility ([20]; water): Soluble
CSCC[C@H](NC(=O)NC(Cc1cccc(O)c1)C(=O)O)C(=O)N[C@@H](C(=O)NC=C1CC(O)C(n2ccc(=O)[nH]c2=O)O1)C(C)N(C)C(=O)[C@@H](N)Cc1cccc(O)c1 (some centres unmarked) [Mureidomycin A, mureidomycin A] | 0.4 (≈ 0.476 µM) | > 200 | 6.25 (≈ 7.43 µM) | 6.25 (≈ 7.43 µM) | < 0.1 | 25 (≈ 29.7 µM) | 12.5 (≈ 14.9 µM) | 25 (≈ 29.7 µM) | 12.5 (≈ 14.9 µM) | 25 (≈ 29.7 µM) | > 200 | 100 (≈ 119 µM) | > 200 | > 200 | 6.25 (≈ 7.43 µM) | 25 (≈ 29.7 µM) | 200 (≈ 238 µM) | 12.5 (≈ 14.9 µM) | active | slightly soluble | toxicity (mice; mice, 400 mg/kg intravenously): No toxicity was observed; Solubility ([20]; benzene): insoluble; Solubility ([20]; chloroform): insoluble; Solubility ([20]; ethyl acetate): insoluble; Solubility ([20]; methanol): Soluble; Solubility ([20]; water): Soluble
